Source: patent publication US8765953B2, “Compounds and methods for the treatment of pain and other diseases” (Aquilus Pharmaceuticals, Inc., priority 2008, dated 2014)

How the values were obtained:
[1] = cited from earlier work
[2] = test system: spinal nerve ligation (SNL) mouse model; assay: Intrathecal (i.t.) SNL-mouse model of neuropathic pain, von Frey mechanical allodynia; assay type: in vivo, FVB male mice
Description: To measure the neuropathic pain inhibiting affects of the MMP inhibitors of the present invention, the spinal nerve ligation (SNL) mouse model was run on a select number of compounds. This model which began with the work of Bennet and coworkers (Bennet, G. J. et al. Pain, 33, (1988), 87-107) and was optimized by Kim and Chung (Kim, S. H.; Chung, J. M. Pain, 50, (1992), 355-363) entails first, under magnification, the removal of one-third of the transverse process and then identifying and then dissecting free the L5 spinal nerve from the adjacent L4 spinal nerve in the mouse. The L5 spinal nerve is then tightly ligated using 6.0 silk suture. The nerve injury leads to hyperalgesia which manifests itself by enhanced responses to mechanical, heat and/or cooling stimuli. In this case, mechanical hyperalgesia is tested via Von Frey monofilaments in which filaments of varying thicknesses and bending force are individually applied to the plantar surface of the foot of the mouse. The threshold force necessary for paw withdrawal decreases dramatically after the nerve surgery. Potent pain inhibitors will reverse this affect resulting in greater force needing to be applied to cause the rodent paw to withdrawal.
Following preoperative baseline (Day −2) paw threshold measurement, FVB male mice were subjected to SNL injury (Day −1). The next day (Day 0) after SNL surgery, the animals were tested for post-operative baseline threshold measurements for mechanical allodynia; and the animals were then randomly assigned to one of 3 treatment groups (see Table 9). Over the course of the study, paw withdrawal threshold of these animals was measured in response to mechanical stimulation using the von Frey Monofilament Test.
To avoid systemic effects of the MMP inhibitors, the MMP inhibitors of the present invention were delivered into the cerebral spinal fluid (CSF) space around lumbosacral spinal cord via intrathecal (i.t.) administration, with the idea of targeting MMPs in the DRG, spinal cord, and spinal CSF. Intrathecal MMP inhibitor administration could then target not only spinal cord cells but also DRG cells. Each intrathecal (i.t.) injection was carried out according to the technique of Hylden and Wilcox (Hylden J L, Wilcox G L. Eur. J. Pharmacol., 67, (1980), 313-6) 5.2 mg of each of the MMP inhibitors were first dissolved in 140 microliters of DMSO and then put into 1260 microliters of 0.5% hydroxypropyl cellulose (HPC) in water to make a fine suspension composed of compound in 10% DMSO-0.5% hydroxypropyl cellulose. 10 microliters of the mixture was injected into the intrathecal space of male FVB mice (weighing 22-25 grams each and obtained from the Jackson Laboratories, Bar Harbor, Me.), by lumbar puncture in a volume of 10 μl/mouse using a Hamilton microsyringe via a 30 gauge needle inserted between lumbar vertebrae 5 and 6. In brief, each animal was held firmly by the pelvic girdle in one hand, while the needle was inserted into the tissue on the right side of the L5 or L6 spinous process. The needle was moved forward and slipped into the groove between the spinous process and transverse process and gently moved forward to the intervertebral space at ˜10° angle. As the needle was inserted (˜0.5 cm) within the vertebral column a tail flick was evident, and the solution was then injected.
Tactile Allodynia Test. Mechanical allodynia was measured using the calibrated von Frey filaments (Semmes-Weinstein monofilaments; Stoelting, Wood Dale, Ill., U.S.A.). The plantar surface of the left injured paw of each animal was tested as described by Chaplan et al. (Journal of Neuroscience Methods, 53, (1994), 55-63). The Fifty percent paw withdrawal threshold response was determined by sequentially increasing or decreasing the stimulus strength according to the “up-down method” of Dixon (Annual Review Pharmacology Toxicology, 20, (1980), 441-462). […]

[3] = In-vitro mouse microsomal stability; assay type: in vitro ADME; details: mouse microsomes, 1 microMolar compound, at T = 60 minutes
Experimental: Human and mouse microsomal stability was determined for select compounds following the method of Houston (Houston, J. B; Biochem. Pharmacol. 47, (1994),1469).
1 μM concentration of compound and separate human and mouse microsomes (0.3 mg/mL, BD bioscience) were used in the in-vitro assay. To ensure proper energy supply for microsomal degradation of compound, an energy regenerating system comprised of 100 mM potassium phosphate, 2 mM NADPH, 3 mM MgCl2, pH=7.4. and the microsomal protein is added to each sample and the resulting suspension is then incubated in duplicate for 60 min at 37° C. in a rotary shaker. A control is run for each test agent in duplicate omitting NADPH to detect NADPH-free degradation. At T=0 and T=60 min., an aliquot is removed from each experimental and control reaction and then mixed with an equal volume of ice-cold Stop Solution (consisting of 0.3% acetic acid in acetonitrile containing haloperidol and diclofenac as internal standards). Stopped reactions are then incubated for at least ten minutes at −20° C., and an additional volume of water is then added. The samples are then centrifuged to remove precipitated protein, and the supernatants are then analyzed by LC-MS/MS to determine the percentage of compound remaining. The LC-MS/MS system used was an Agilent 6410 mass spectrometer coupled with an Agilent 1200 HPLC and a CTC PAL chilled autosampler, all controlled by MassHunter software (Agilent), or an ABI2000 mass spectrometer coupled with an Agilent 1100 HPLC and a CTC PAL chilled autosampler, all controlled by Analyst software (ABI). After separation on a C18 reverse phase HPLC column (Agilent, Waters, or equivalent) using an acetonitrile-water gradient system, peaks were analyzed by mass spectrometry (MS) using ESI ionization in MRM mode.

**Q.** Which “Metabolites found in human blood” value [1] does the source give for `Cc1ccc(C#Cc2ccc(S(=O)(=O)N[C@H](Cc3c[nH]c4ccccc34)C(=O)O)s2)cc1` [Compound 5, (R)-3-(1H-Indol-3-yl)-2-(5-p-tolylethynyl-thiophene-2-sulfonylamino)-propionic acid] here?
**A.** formation of several hydroxylated metabolites

**Q.** And the “Paw withdrawal threshold, mean, Day 5” value ([2]; i.t. 10 μl/mouse daily day 1-6)?
**A.** 0.079 grams

**Q.** What about the “Paw withdrawal threshold, mean, Day 7” value ([2]; i.t. 10 μl/mouse daily day 1-6) of the same compound?
**A.** 0.190 grams

**Q.** And the “Paw withdrawal threshold, mean, Day 1” value ([2]; i.t. 10 μl/mouse daily day 1-6, testing 2 hr after first i.t. injection)?
**A.** 0.098 grams

**Q.** And the “Paw withdrawal threshold, mean, Day 0 Postoperative Baseline” value ([2]; i.t. study, post operative injury baseline, before treatment)?
**A.** 0.050 grams

**Q.** What about the “Paw withdrawal threshold, mean, Day(-2) Pre-operative Baseline” value ([2]; i.t. study, testing prior to SNL injury, before treatment) of the same compound?
**A.** 1.265 grams

**Q.** And the “% Mean Remaining Parent with NADPH (%)” value ([3]; with NADPH)?
**A.** 83%

**Q.** And the “% Mean Remaining Parent without NADPH (%)” value ([3]; without NADPH (control))?
**A.** 88%
